What was measured:
Type in all cases: in vivo, rat
[1] = test system: blood sugar level; assay: Test Example 6: effect of branched amino acids in blood sugar elevation model by glucose (blood sugar level); settings: Pentobarbital anesthesia; for time at which blood sugar level reached the maximum (peak): after the start of test, 5 weight % glucose-1.8% amino acid i.v.
Protocol: A blood sugar elevation model was made by intravenous administration of glucose to the living body, and the effect was examined with parallel administration of leucine, isoleucine and valine in the above-mentioned model.
(§1) Rats were pre-treated in a similar manner to Test Example 4, and anesthesia in the rats was maintained for 3 hours by intravenous continuous administration of Pentobarbital in a similar manner to Test Example 4. […] Blood was collected (100 μL) through the catheter for administration of aqueous amino acid solution before the start of administration, 30 minutes, 90 minutes, and 180 minutes after the start of administration respectively. And then, the blood sugar level and serum insulin value were determined according to Test Example 1.

[2] = test system: blood sugar level; assay: Test Example 8: inhibition of blood sugar elevation by oral isoleucine during sugar tolerance, non-anesthesia vs anesthesia; settings: 0.5 g/10 mL/kg isoleucine orally, 3 g glucose/kg orally 30 minutes later
Protocol: Non-anesthesia group: rats under overnight fasting conditions were divided into groups by body weight, blood was collected from a tail vein (Pre Value). To a control group and a sample solution group was orally administered 0.5 g/10 mL/kg of OTSUKA distilled water (water for injection; manufactured by OTSUKA PHAMACEUTICAL FACTORY, INC.) and 0.5 g/10 mL/kg of aqueous isoleucine solution, respectively. 50% OTSUKA sugar solution (glucose injection (glucose 100 g/200 mL); manufactured by OTSUKA PHAMACEUTICAL FACTORY, INC.; hereinafter also simply called glucose solution) was administered orally so as to be 3 g glucose/kg 30 minutes after the administration of the sample solution. Blood was collected from the tail vein 30 minutes, 60 minutes, 90 minutes, and 120 minutes after the start of sugar solution administration, and the blood sugar level was determined. Each blood sugar level was considered as 30 minutes value, 60 minutes value, 90 minutes value, and 120 minutes value, respectively in the non-anesthesia group.
Anesthesia group: rats under overnight fasting conditions were divided into groups by body weight, blood was collected from a tail vein (Pre Value). […] The blood sugar level of the blood collected from the tail vein 30 minutes, 60 minutes, 90 minutes, and 120 minutes after the administration of sugar solution was determined. […]

[3] = test system: serum insulin value; assay: Test Example 6: serum insulin value with glucose+leucine
Protocol: The serum insulin value was determined by ELISA Method (manufactured by Mevcodia Co.).
as §1

[4] = test system: blood sugar level; assay: Test Example 7: blood sugar decrease by oral administration of leucine, anesthesia vs non-anesthesia; settings: 0.3 g/10 mL/kg leucine suspension orally
Protocol: Non-anesthesia group: rats under overnight fasting conditions were divided into groups by body weight, and blood was collected from a tail vein (Pre Value). Shortly after that, 10 mL/kg of distilled water was orally administered to control group, and 0.3 g/10 mL/kg of leucine suspension to a sample solution group. Blood was collected from the tail vein 90 minutes after the administration of distilled water and the sample solution (90 minutes value).
Anesthesia group: rats under overnight fasting conditions were divided into groups by body weight, and blood was collected from a tail vein (Pre Value). After the blood collection, 10 mL/kg of distilled water was orally administered to a control group, and 0.3 g/10 mL/kg of leucine suspension to a sample solution group. Saflow indwelling needle was kept in the tail vein 30 minutes after the sample solution was administered. After that, anesthesia was introduced by rapid intravenous administration of 30 mg/kg Pentobarbital Sodium. Thereafter, a gastight syringe disposed in micro syringe pump and an indwelling needle were connected through an extension tube, and anesthesia was maintained by continuous intravenous administration of 30 mg/kg/hr. Blood was collected from the tail vein opposite to that wherein the indwelling needle was kept 60 minutes after introduction of anesthesia (90 minutes value).
In addition, blood was collected in a tube for hematocrit determination. After collected blood was centrifuged, plasma fraction was recovered and the blood sugar level was determined according to Test Example 1.
The changed value of the blood sugar level was calculated by deducting Pre value of each rat plasma from 90 minutes value of each rat plasma.

SMILES | time at which blood sugar level reached the maximum (peak) [1] | area under the blood sugar level curve (AUC, 0-120 min) compared to control group ([2]; anesthesia group (Somnopentyl i.p.)) | area under the blood sugar level curve (AUC, 0-120 min) compared to control group ([2]; non-anesthesia group) | blood sugar level compared with glucose administration group ([1]; 90 and 180 minutes after the start of the test) | increase of serum insulin value under anesthesia relative to non-anesthesia ([3]; 30 minutes) | increase of serum insulin value under anesthesia relative to non-anesthesia ([3]; 90 minutes) | increase of serum insulin value under anesthesia relative to non-anesthesia ([3]; 180 minutes) | decrease extent of blood sugar level in the anesthesia group compared to non-anesthesia group [4] | changed value of the blood sugar level (90 minutes value minus Pre value) ([4]; anesthesia group (Pentobarbital Sodium)) | changed value of the blood sugar level (90 minutes value minus Pre value) ([4]; non-anesthesia group)
CC[C@H](C)[C@H](N)C(=O)O [isoleucine] | 30 min | significant decrease | decreased compared to that of the control group | – | – | – | – | – | – | –
CC(C)C[C@H](N)C(=O)O [leucine] | 30 min | – | – | lower significantly | 1.7 times | 9.9 times | 16.2 times | 2.7 times | decrease in blood sugar level was recognized | decrease in blood sugar level was recognized
